Measured values taken from PMC10587169, “Tuning aminopolycarboxylate chelators for efficient complexation of trivalent actinides” (Scientific Reports, 2023).

Key:
Format in all cases: binding
[1] = Spectrophotometric titration; conditions: I = 2.0 M (Na+/H+)ClO4 at 20.0 °C, not marked potentiometry (spectrophotometric titration)
[2] = Competitive complexation liquid-liquid extraction with HDEHP; conditions: competitive solvent extractions, T = 20 ± 1 °C, ±3σ
Description: Stability constants for the coordination of Eu^3+, Am^3+, Cm^3+, and Cf^3+ were also achieved by monitoring the suppression of liquid–liquid partitioning of the radiotracer due to the increasing presence of an aqueous complexant. Aqueous solutions were prepared containing sub-millimolar amounts of ligand while maintaining p[H^+] at 1.7, 1.8, 1.9, 2.0, and 2.1. Ionic strength was maintained at 2.00 M using sodium perchlorate. Aqueous complexation was balanced with the appropriate choice of HDEHP concentration in octane to allow accurate quantification of metal distribution. Non-aqueous phases were pre-equilibrated three times with 2.00 M NaClO4 at the corresponding p[H^+]. Preliminary time-dependent studies indicated the phase transfer equilibrium was attained for all measurements with H4octapa and H4pypa-peg (Figures S2 and S3 in the SI). For the mixtures traced with radioisotopes, the activity was measured using gamma spectroscopy (ORTEC GEM50P4 coaxial HPGe detector, DSPEC gamma spectrometer) for ^154Eu (123.07 keV), ^243Am (74.66 keV), and ^249Cf (388.17 keV) and liquid scintillation counting (Perkin Elmer Tri-Carb 3180 TR/SL) for ^248Cm. The ratio of radioisotope activity in the organic and aqueous phases defined the liquid–liquid distribution.
Liquid–liquid partitioning of trivalent f-elements was monitored in presence of H4octapa and H4pypa-peg using a strong liquid cation exchanger, bis–(2-ethylhexyl)phosphoric acid, HDEHP. This competitive solvent extraction methodology was used to determine the conditional stability constants for complexation of Eu^3+, Am^3+, Cm^3+, and Cf^3+ with H4octapa and H4pypa-peg. The metals, present at radiotracer concentrations ([…]), distributed between an organic phase containing HDEHP in n-octane and an aqueous phase containing the complexant at varying concentrations and aqueous acidity. The interpretation of the competitive complexation liquid–liquid distribution data (SI Tables S3 through S5 for H4octapa and S6 through S8 for H4pypa-peg) considered two complex formation equilibria as described by Eqs. (4) and (5). All collected distribution data indicated the average ligand-to-metal stoichiometry of 1.00 ± 0.04 for H4octapa and 1.00 ± 0.03 for H4pypa-peg (see SI Figures S10A and S11A). The partitioning of a trivalent metal ion as facilitated by a dimerized HDEHP cation exchanger can be expressed by Eq. (6) as quantified by the extraction constant, Kex (subscript org refers to organic-soluble species).6 M^3++3HDEHP2,org⇆MHDEHP23,org+3H^+Kex=MHDEHP23,orgH^+^3/M^3+HDEHP2,org^3
The stoichiometry for the extraction of trivalent metal ion by HDEHP was verified at 2.85 ± 0.03 by slope analysis study using ^249Cf^3+ as representative ion for H4octapa (SI Figure S10B) and 2.78 ± 0.13 for H4pypa-peg (SI Figure S11B). […]

[3] = Spectrophotometric titration; conditions: spectrophotometrically measured, I = 2.0 M (Na+/H+)ClO4, T = 25 ± 1 °C, ±3σ
Excerpt: Changes in the optical absorption characteristics of Nd^3+ were monitored using a Cary 6000i UV/Vis–NIR Spectrometer (Agilent) using 1 cm semimicro quartz cuvettes (Starna) in double-beam mode, where the ^4I9/2 → ^4G5/2, ^2G7/2 transitions[34] were monitored between 560 and 605 nm with a 0.075 nm interval and 1.0 nm spectral bandwidth. Changes in the optical absorption characteristics of ^243Am^3+ and ^248Cm^3+ were monitored using a Flame-S-VIS–NIR-ES spectrometer coupled to a DH-2000-BAL dual-mode light source (Ocean Optics) with a single 1 cm semimicro quartz cuvette (Starna). […] The complexation of Am^3+ with the ligands was monitored in the 495–525 nm spectral region, looking at the ^7F0′ → ^5L6′ transition[23],[35]. For Cm^3+, ligand complexation was monitored in the 365–410 nm spectral region, looking at the ^8S7/2 → ^2Ji (i = {15}, {13,9}, {11,17}) manifold transitions[24],[25],[36]. Changes in aqueous p[H^+] were monitored throughout each titration step using a Gran-calibrated Orion Ross Semi-micro glass electrode. […] Finally, the spectroscopic data was analyzed using the HypSpec software package[33],[37]. […]
To further validate the competitive solvent extraction methodology the complexation of Am^3+ with H4octapa and Cm^3+ with H4pypa-peg was studied spectrophotometrically. […] The presence of both ligands induced new red-shifted absorption signatures in each monitored titration. […]

O=C(O)CN(CCN(CCN(CC(=O)O)CC(=O)O)CC(=O)O)CCN(CC(=O)O)CC(=O)O [H6ttha, triethylenetetraamine-N,N,N',N'',N''',N'''-hexaacetic acid]
logβ121 (MH2L), Nd3+ [1]: 27.7(1)

O=C(O)CN(CCN(CC(=O)O)Cc1cccc(C(=O)O)n1)Cc1cccc(C(=O)O)n1 [H4octapa, 6,6′-((ethane-1,2-diylbis–((carboxymethyl)azanediyl))bis–(methylene))dipicolinic acid]
logβ101 (ML), Cf3+ ([2]; I = 2.00 M sodium perchlorate): 20.6 (2)^^

O=C(O)CN(Cc1cc(-c2cn(CCOCCOCCO)nn2)cc(CN(CC(=O)O)Cc2cccc(C(=O)O)n2)n1)Cc1cccc(C(=O)O)n1 [H4pypa-peg, 6,6'-((((4-(1-(2-(2-(2-hydroxyethoxy)ethoxy)ethyl)-1H-1,2,3-triazol-4-yl)pyridine-2,6-diyl)bis–(methylene))bis–((carboxymethyl)azanediyl))bis–(methylene)) dipicolinic acid]
logβ101 (ML), Cf3+ ([2]; I = 2.00 M sodium perchlorate): 21.0 (4)^^
logβ111 (MHL), Cf3+ ([2]; I = 2.00 M sodium perchlorate): 23.2 (2)^^
logK111, Cf3+ [2]: 2.2 (1)^^
logβ101 (ML), Cm3+ [3]: 20.37 (2)
